Experimental data: patent publication US10155742B2, “Halofuginol derivatives and their use in cosmetic and pharmaceutical compositions” (President and Fellows of Harvard College, priority 2012, dated 2018)
Entries after “also recorded” stand apart in the source; their conditions may differ. Like-named read-outs stand apart in the source and are kept apart here.

Tests used:
[1] = test system: translation in rabbit reticulocyte lysate (RRL); test: In vitro translation assay in rabbit reticulocyte lysate (RRL); conditions: for inhibition of translation of luciferase RNA in RRL: luminescence assay, FIG. 2A/2B
[2] = biological target: T1, ProRS (amino acids 998-1513 of human EPRS) (Homo sapiens, UniProt P07814); test: [3H]-HFol binding to immobilized ProRS; conditions: for inhibition of [3H]-HFol binding to ProRS: FIG. 4A
T1 construct: Purified 6-his tagged ProRS (amino acids 998-1513 of human EPRS) was immobilized on N-NTA beads; made in house; host or cells: E. coli BL21(DE3), plasmid pKS509
T1 sequence (P07814 998-1512 limits assumed): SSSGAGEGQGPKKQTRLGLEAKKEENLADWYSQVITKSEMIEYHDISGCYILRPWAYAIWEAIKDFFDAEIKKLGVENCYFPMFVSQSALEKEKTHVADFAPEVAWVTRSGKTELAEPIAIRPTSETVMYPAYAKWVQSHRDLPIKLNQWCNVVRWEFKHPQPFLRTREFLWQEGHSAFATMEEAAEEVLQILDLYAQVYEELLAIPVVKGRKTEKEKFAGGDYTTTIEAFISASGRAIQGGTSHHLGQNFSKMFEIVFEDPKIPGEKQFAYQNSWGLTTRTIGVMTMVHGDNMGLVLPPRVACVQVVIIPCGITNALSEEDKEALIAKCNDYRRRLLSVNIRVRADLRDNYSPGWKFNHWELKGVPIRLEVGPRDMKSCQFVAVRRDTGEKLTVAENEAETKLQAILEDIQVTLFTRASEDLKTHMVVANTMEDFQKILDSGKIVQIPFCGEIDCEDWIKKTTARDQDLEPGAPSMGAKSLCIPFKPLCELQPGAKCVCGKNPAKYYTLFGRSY
Experimental: B) [^3H]-HFol binding was assayed as described above in the presence of indicated concentrations of proline. […] IMR90 lung fibroblasts were treated with a siRNAs directed against EPRS (Dharmacon) or a control siRNA mixture for 48 hours, and then treated with HF for 2 hours (pGCN2) and examined for EPRS protein levels, GCN2 total protein and phospho-GCN2 by Western blot. D) EPRS depleted IMR90 cells were compared to control cells with respect to HF induction of the AAR marker CHOP by Q-PCR. Equal concentrations of total cellular protein were loaded in each Western blot lane. CHOP expression was standardized to expression of phosphoglycerate kinase 1 (PGK1) and glyceraldehyde-3-phosphate-dehydrogenase (GAPDH). Data shown are representative of three separate experiments.
Prolyl sulfamoyl adenosine (ProSAd) or alanyl sulfamoyl adenosine (AlaSAd), analogs of the corresponding aminoacyl adenylate, were coincubated with [^3H]-HFol as in FIG. 2. […] Binding of [^3H]-HFol was assayed as in FIG. 3, except that the nucleotide type and concentration was varied as indicated.
To examine HF binding to ProRS, ^3H HFol was synthesized by American Radiochemicals (St. Louis) by reduction of MAZ1310 (3) at the ketone with NaB^3H4, followed by removal of the Boc protecting group with 10% trifluoroacetic acid in dichloromethane, and HPLC purification of the ^3H HFol. 100 nM ^3H HFol was incubated with ProRS immobilized on Ni-NTA beads (Pierce) in 50 mM Tris pH 7.5, 5 mM MgCl2, 20 mM Imidazole, 1 mM DTT, 10% glycerol, and nucleotides, proline, or HF derivatives at room temperature for 10 minutes as indicated. After incubation, beads were washed twice with ice-cold wash buffer (50 mM Tris 7.5; 20 mM Imidazole; 1 mM DTT, 20% glycerol). ^3H HFol bound after washing was measured by liquid scintillation counting. Ni-NTA beads incubated with E. coli extracts lacking tagged ProRS were used as a background reference in all experiments.

P. falciparum (Dd2) = test: In vitro P. falciparum viability assay with excess proline; assay type: cell-based, Plasmodium falciparum; conditions: Dd2 strain in red blood cells, relative to unmodified RPMI, FIG. 23
Experimental: The activity of halofuginone and amodiaquine as inhibitors of P. falciparum growth was tested in erythrocytes in RPMI with or without excess amino acids as indicated, and IC50 values were normalized to IC50 values obtained under standard conditions using unmodified RPMI (numbers in bold). The absolute IC50 values for halofuginone and amodiaquine for RPMI are reported in parentheses. Fold amino acid indicated (e.g., “5×”) is relative to the concentration of the respective amino acid in RPMI. Fold concentration of D-Pro and L-Orn are relative to L-Pro.
In vitro potency against P. falciparum (DD2) was assessed using a modified version of the method of Plouffe and coworkers (Plouffe et al. Proc. Natl. Acad. Sci. USA 105:9059-64 (2008)). Parasites were cultured in the presence of drug in RPMI (Sigma) containing 4.16 mg/ml Albumax in a total volume of 50 μl at a 2.5% hematocrit and an initial parasitemia of 0.3% in black Greiner GNF clear-bottom plates. Cultures were incubated 72 hr at 37° C. under […], 4% CO2 and 3% O2. At the end of the incubation, SYBR green was added to a dilution of 1:10,000 and plates were stored overnight (or until ready to be read) at −80° C. Just before reading, plates were centrifuged at 700 rpm and fluorescence was read using 480 nm excitation and 530 nm emission frequencies. Compound concentrations that inhibit parasite replication reduce the fluorescence intensity of SYBR green bound to parasite DNA.

[3] = biological target: T2, prolyl tRNA synthetase domain of human EPRS (ProRS) (Homo sapiens, UniProt P07814)
T2 sequence (P07814 998-1512 limits assumed): T1 sequence (P07814 998-1512 limits assumed)
Experimental: Activity of the Prolyl tRNA synthetase domain of EPRS (ProRS) was measured as ^3H Pro incorporation into the charged tRNA pool. […] Purified enzyme was visualized as a single band by Laemmli gel electrophoresis/Coomassie staining.
Purified enzyme was visualized as a single band by Laemmli gel electrophoresis/Coomassie staining. […] In preliminary experiments, the assay was established to be linear over the time (6 min) and conditions used (30 degrees, 2 mM ATP, 1 μg/μl total tRNA purified from rabbit liver).
For the rapid, quantitative isolation of aminoacylated tRNA^pro from synthetase reaction mixtures, reactions were stopped with 100 μl of ice cold 20 mM MOPS pH6.2, 200 mM NaCl, 10 mM EDTA, 30% Glycerol and placed on ice. Samples were added to 15 μl of packed Mono Q HP beads (GE Healthcare) equilibrated in the same buffer. Samples were incubated with beads on ice for 10 min, beads were pelleted by 5 sec centrifugation in a tabletop microfuge and washed 3× 1 ml of wash buffer (20 mM MOPS pH6.2, 50 mM NaCl), and recovered pellets counted in a liquid scintillation counter. Background binding of ^3H Pro to beads (using reaction mix with either no enzyme added or no tRNA added) was negligible (20-40 cpm).

[4] = test system: primary human prostate stromal (hPrSc) cells, s100a4; test: S100A4 mRNA in primary human prostate stromal cells; assay type: cell-based; conditions: with or without TGF 10 ng/ml, FIG. 28
Experimental: (§1) Primary human prostate stromal (hPrSc) cells were left in low-serum media (0.2%) for 24 hours, and treated consecutively twice for 48 hours with or without tumor-growth factor beta (TGF; 10 ng/ml), halofuginone (HF) or halofuginol (HFol) at the concentrations indicated. Relative mRNA levels of the fibrosis/tissue invasion marker s100a4 was measured by quantitative real-time PCR using glyceraldehyde-3-phosphate dehydrogenase (GAPDH) as internal control.

[5] = test system: primary human prostate stromal (hPrSc) cells, col1a1; test: Type I collagen (col1a1) mRNA in primary human prostate stromal cells; assay type: cell-based; conditions: treated twice for 48 hours, FIG. 27
Experimental: as §1, with “hours,” for “hours with or without tumor-growth factor beta (TGF; 10 ng/ml),”, “myofibroblastic markeralpha 1 collagen type 1 (col1a1)” for “fibrosis/tissue invasion marker s100a4”

[6] = test system: Th17 cell differentiation (primary murine CD4+ CD25- T cells); test: Th17 differentiation of T cells; assay type: cell-based, mouse; conditions: 6 nM (3 ng/mL) borrelidin, FIG. 19
Experimental: A) Primary murine CD4^+ CD25^− T cells were activated through the T-cell receptor in Th17 polarizing conditions (Sundrud et al. Science 324:1334-8 (2009)) in the presence of either 10 nM MAZ1310 or HF and the following amino acid supplements: 10× concentration of essential (EAA) or non-essential (NEAA) amino acids mixtures (Biowhittaker or Invitrogen, respectively), or 10× concentrations (1 mM) of indicated individual amino acids. Data are presented as mean percentage of Th17 (IL-17+ IFNg−) cells +/−SD from triplicate wells. B) Th17 differentiation was assayed as described above, in the absence or presence of HF or borrelidin, with or without 1 mM threonine or proline supplementation. C) MEFs were treated with or without HF (50 nM) and/or proline (2 mM) for 4 hours (CHOP, S100A4) or 24 hours (ColIA1, Col1A2). mRNA expression was normalized to expression of TBP and is shown relative to untreated control. […] Confidence intervals (p-value) for the effect of HF alone versus HF+Pro were determined using a two-tailed Student's t test. […] D) Cells were pre-incubated for 24 hours with HF and proline as indicated, and secretion of Type I procollagen was measured after 24 hours in conditioned medium of cells plated by Western blot and quantitated using Image J software (top panel). Total protein synthesis was measured as TCA-precipitable ^35S in a scintillation counter (bottom panel). […]

[7] = inhibitor 1 μM, anti-myc Western blot, FIG. 2C

O=C(C[C@@H]1NCCC[C@H]1O)Cn1cnc2cc(Br)c(Cl)cc2c1=O (single isomer, unassigned) [2S,3R isomer of HF]
inhibition of translation of luciferase RNA in RRL [1]: no activity

C[C@H](N)C(=O)NS(=O)(=O)OC[C@H]1O[C@@H](n2cnc3c(N)ncnc32)[C@H](O)[C@@H]1O [AlaSAd, alanyl sulfamoyl adenosine]
inhibition of [3H]-HFol binding to ProRS ([2]; 50 nM competitor): partially inhibited

O=C(C[C@H]1NCCC[C@@H]1O)Cn1cnc2ccccc2c1=O [FF, febrifugine]
translation of Nopropep (proline-free polypeptide) [1, 7]: no effect
translation of Propep (proline dipeptide containing polypeptide) [1, 7]: prevent translation
inhibition of translation of luciferase RNA in RRL [1]: inhibited
fold increase of effective IC50 on addition of 5× proline (P. falciparum (Dd2)): ~5 fold

O=c1c2cc(Cl)c(Br)cc2ncn1C[C@@H](O)C[C@H]1NCCC[C@@H]1O [HFolA, halofuginol]
inhibition of ProRS activity ([3]; 3H Pro incorporation into tRNA): active; also recorded: inhibits; also recorded: potent inhibitor

O=c1c2cc(Cl)c(Br)cc2ncn1C[C@H](O)C[C@H]1NCCC[C@@H]1O [HFolA, halofuginol]
inhibition of ProRS (EPRS) activity ([3]; 100 μM Pro, FIG. 13): inhibits; also recorded: potency similar to the parent compound
expression of the activated fibroblast marker S100A4 [4]: inhibit
Type 1 collagen expression in fibroblasts in culture [5]: inhibit

CC(C)(C)OC(=O)N1CCC[C@H](O)[C@H]1CC(=O)Cn1cnc2cc(Br)c(Cl)cc2c1=O [MAZ1310]
inhibition of ProRS activity ([3]; 14C Proline used as trace label, FIG. 9): does not block; also recorded: no inhibitory effect
inhibition of translation of luciferase RNA in RRL [1]: no activity

Nc1ncnc2c1ncn2[C@@H]1O[C@H](COS(=O)(=O)NC(=O)[C@@H]2CCCN2)[C@@H](O)[C@H]1O [ProSAd, 5-O—[N-(L-prolyl)-sulfamoyl]adenosine]
inhibition of [3H]-HFol binding to ProRS ([2]; 10 nM competitor): inhibited

[3H][C@@](O)(C[C@H]1NCCC[C@@H]1O)Cn1cnc2cc(Br)c(Cl)cc2c1=O [[^3H]-HFol]
direct binding to immobilized ProRS ([2]; 5 mM MgCl2, 2 mM ATP, 10 min RT): bound directly

CCN(CC)Cc1cc(Nc2ccnc3cc(Cl)ccc23)ccc1O [amodiaquine]
fold increase of effective IC50 on addition of 5× proline (P. falciparum (Dd2)): did not affect

C[C@@H]1C[C@H](C)C[C@H](C)[C@@H](O)CC(=O)O[C@H]([C@@H]2CCC[C@H]2C(=O)O)C/C=C/C=C(/C#N)[C@H](O)[C@@H](C)C1 [borrelidin]
inhibition of Th17 cell differentiation [6]: selectively inhibits
inhibition of Th17 cell differentiation ([6]; listed as Borrelidin): inhibited
